Patent publication US8574865B2, “Methods and assays for identifying compounds that modulate protein-protein interactions” (Sanofi, priority 2007, dated 2013)
Entries after “also recorded” stand apart in the source; their conditions may differ.

Experiments:
ADRB2 = biological target: T1, ADRB2 (Homo sapiens, UniProt P07550); test: GPCR Per-Luc assay, HEK293 cells stably expressing Arr-luc234V233 and transiently transfected with ADRB2-TEV; assay type: cell-based; details: different concentrations, two hours
T1 construct: expressed in transfected cells

[1] = system: Endogenous receptor EDG in HEK293 cells; test: FLIPR and cAMP assays; details: HEK293 endogenous EDG receptors
V2 vasopressin receptor = biological target: T2, V2 vasopressin receptor (Homo sapiens, UniProt P30518); test: GPCR Per-Luc assay, HEK293 cells stably expressing Arr-luc234V233 and transfected with V2-TEV; assay type: cell-based; details: different concentrations, two hours
T2 construct: expressed in transfected cells; host or cells: HEK293 stably expressing Arr-luc234V233
T2 sequence (P30518 whole entry): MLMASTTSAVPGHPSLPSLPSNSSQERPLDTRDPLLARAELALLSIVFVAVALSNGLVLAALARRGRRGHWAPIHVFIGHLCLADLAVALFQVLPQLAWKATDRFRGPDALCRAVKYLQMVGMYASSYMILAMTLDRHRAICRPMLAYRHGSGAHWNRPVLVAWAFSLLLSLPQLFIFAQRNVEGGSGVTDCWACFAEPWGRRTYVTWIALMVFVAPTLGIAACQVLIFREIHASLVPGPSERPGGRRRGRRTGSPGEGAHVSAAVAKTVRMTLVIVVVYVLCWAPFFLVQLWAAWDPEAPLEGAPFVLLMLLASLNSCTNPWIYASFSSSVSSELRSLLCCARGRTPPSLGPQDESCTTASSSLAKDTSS
Protocol: HEK cells stably transfected with an arrestin/permuted luciferase construct were transiently transfected with a V2-TEV construct and induced with the agonist, 8AVP, arginine vasopressin (left graph).
Bright-GLO™ luciferase reagent was added to cells.

T1 sequence (P07550 whole entry): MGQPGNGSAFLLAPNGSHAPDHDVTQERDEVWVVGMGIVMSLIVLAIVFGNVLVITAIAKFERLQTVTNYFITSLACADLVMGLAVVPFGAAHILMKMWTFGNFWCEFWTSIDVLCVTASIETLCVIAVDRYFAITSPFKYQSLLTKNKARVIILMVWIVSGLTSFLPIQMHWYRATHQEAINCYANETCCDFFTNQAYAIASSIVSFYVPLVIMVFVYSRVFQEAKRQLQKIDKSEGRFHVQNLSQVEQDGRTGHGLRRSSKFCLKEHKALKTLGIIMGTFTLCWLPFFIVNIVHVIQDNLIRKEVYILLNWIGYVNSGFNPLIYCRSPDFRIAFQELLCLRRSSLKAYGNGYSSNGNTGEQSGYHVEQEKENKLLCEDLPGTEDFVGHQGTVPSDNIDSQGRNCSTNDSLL

Compound | luciferase activity, compound alone (ADRB2) | signal in FLIPR and cAMP assays [1] | luciferase activity (β arrestin recruitment to V2) (V2 vasopressin receptor)
CCCCCCCCCCCCC/C=C/[C@@H](O)[C@@H](N)COP(=O)(O)O [S1P, sphingosine-1-phosphate] | did not affect the luciferase activity | did produce positive signals | 
CCOc1ccc2c(c1)C1(CCC(OCCN3CCOCC3)CC1)C(=O)N2S(=O)(=O)c1ccc(C(=O)NC(C)(C)C)cc1OC (stereo not drawn) [SR121463] |  |  | increasing levels of luminescence were observed with increasing amounts; also recorded: induced a G protein-independent, arrestin-dependent signal
